Each structure is given as a SMILES string.

This note sets out measurements from patent US6921770B2 (priority 2000, dated 2005).

In this assay the test system is rice blast fungi. The format is in vivo, Pyricularia grisea.
As for `Cc1ccc(NC(=O)Cc2csc(=Nc3ccc(F)cc3F)n2C)cc1` [Compound 332, 2-(2,4-difluorophenylimino)-3-methyl-4-[N-(4-methylphenyl)carbamoylmethyl]-1,3-thiazol-4-ine], the “Inhibiting Ratio (%) (at 250 ppm)” value is given as 100%.

As for `Cl.O=C(Cc1csc(=Nc2ccc(F)cc2F)n1C1CC1)Nc1ccc(Br)cc1` [Compound 258, 2-(2,4-difluorophenylimino)-3-cyclopropyl-4-[N-(4-bromophenyl)carbamoylmethyl]-1,3-thiazol-4-ine hydrochloride], the “Inhibiting Ratio (%) (at 250 ppm)” value was 91%.

Consider `Br.COc1ccc(NC(=O)Cc2csc(=Nc3ccccc3OC)n2C)cc1` [Compound 311, 2-(2-methoxyphenylimino)-3-methyl-4-[N-(4-methoxyphenyl)carbamoylmethyl]-1,3-thiazol-4-ine hydrobromide], for which the “Inhibiting Ratio (%) (at 250 ppm)” value was 95%.

Consider `Br.Cc1ccc(NC(=O)Cc2csc(=Nc3ccc(Br)cc3C)n2C)cc1` [Compound 33, 2-(4-bromo-2-methylphenylimino)-3-methyl-4-[N-(4-methylphenyl)carbamoylmethyl]-1,3-thiazol-4-ine hydrobromide], for which the “Inhibiting Ratio (%) (at 250 ppm)” value was 100%.

On to `Br.Cn1c(CC(=O)Nc2cccc(Cl)c2)csc1=Nc1ccc(Cl)cc1F` [Compound 66, 2-(4-chloro-2-fluorophenylimino)-3-methyl-4-[N-(3-chlorophenyl)carbamoylmethyl]-1,3-thiazol-4-ine hydrobromide], for which the “Inhibiting Ratio (%) (at 250 ppm)” value was found to be 96%.

Take `Cc1ccc(NC(=O)Cc2csc(=Nc3ccc(Br)cc3)n2C)cc1Cl.Cl` [Compound 229, 2-(4-bromophenylimino)-3-methyl-4-[N-(3-chloro-4-methylphenyl)carbamoylmethyl]-4-thiazoline hydrochloride]: the “Inhibiting Ratio (%) (at 250 ppm)” value came to 93%.

Turning to `Cl.Cn1c(CC(=O)Nc2ccc(C#N)cc2)csc1=Nc1ccc(OC(F)(F)F)cc1` [Compound 215, 2-(4-trifluoromethoxyphenylimino)-3-methyl-4-[N-(4-cyanophenyl)carbamoylmethyl]-4-thiazoline hydrochloride], the “Inhibiting Ratio (%) (at 250 ppm)” value worked out at 93%.

Regarding `Cl.Cn1c(CC(=O)Nc2ccc(Br)cc2)csc1=Nc1ccc([N+](=O)[O-])cc1` [Compound 144, 2-(4-nitrophenylimino)-3-methyl-4-[N-(4-bromophenyl)carbamoylmethyl]-1,3-thiazol-4-ine hydrochloride], the “Inhibiting Ratio (%) (at 250 ppm)” value is 97%.

Take `Br.CC(C)OC(=O)c1cc(N=c2scc(CC(=O)Nc3ccccc3)n2C)ccc1Cl` [Compound 23, 2-(4-chloro-3-isopropyloxycarbonylphenylimino)-3-methyl-4-(N-phenylcarbamoylmethyl)-1,3-thiazol-4-ine hydrobromide]: the “Inhibiting Ratio (%) (at 250 ppm)” value was determined as 96%.

For `Br.Cc1ccc(Cl)cc1N=c1scc(CC(=O)Nc2ccccc2)n1C` [Compound 24, 2-(5-chloro-2-methylphenylimino)-3-methyl-4-(N-phenylcarbamoymethyl)-1,3-thiazol-4-ine hydrobromide], the “Inhibiting Ratio (%) (at 250 ppm)” value is 97%.

For `COc1ccc(NC(=O)Cc2csc(=Nc3ccc(Cl)cc3F)n2C)cc1.Cl` [Compound 207, 2-(4-chloro-2-fluorophenylimino)-3-methyl-4-[N-(4-methoxyphenyl)carbamoylmethyl]-1,3-thiazol-4-ine hydrochloride], the “Inhibiting Ratio (%) (at 250 ppm)” value was found to be 93%.

With `Cc1ccc(NC(=O)Cc2csc(=Nc3ccc(C#N)cc3)n2C)cc1Cl.Cl` [Compound 228, 2-(4-cyanophenylimino)-3-methyl-4-[N-(3-chloro-4-methylphenyl)carbamoylmethyl]-4-thiazoline hydrochloride], the “Inhibiting Ratio (%) (at 250 ppm)” value is 97%.

Turning to `Cc1ccc(NC(=O)Cc2csc(=Nc3cc(Cl)cc(Cl)c3)n2C)cc1Cl.Cl` [Compound 230, 2-(3,5-dichlorophenylimino)-3-methyl-4-[N-(3-chloro-4-methylphenyl)carbamoylmethyl]-4-thiazoline hydrochloride], the “Inhibiting Ratio (%) (at 250 ppm)” value came to 93%.
